Results on 79 molecules are retold here after the METLIN SMRT retention time set (Domingo-Almenara et al. 2019).

A short description of the data set: gradient 5% acetonitrile 3 min, to 50% in 2 min, to 85% in 15 min, held 3 min, 100 µL/min. Conditions: column: Zorbax Extend-C18 2.1 x 50 mm; eluents: water / acetonitrile, 0.1% formic acid. The essentials:
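Retention times come from adduct peaks that were picked computationally and then checked by hand. The standards, pure and pooled in mixtures of ~100 molecules, were run on a Zorbax Extend-C18 column (2.1 × 50 mm, 1.8 μm) at 100 μL/min with water and acetonitrile, each with 0.1% formic acid. Detection was by quadrupole time-of-flight mass spectrometry in positive and negative ionization mode, with a dead volume of 40 μL and a dwell volume of 900 μL.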
The molecule `CCOC(=O)C1CCN(C(=O)Cn2c(=O)oc3ccc(C(=O)N4CCCCC4)cc32)CC1` displayed an RP-LC retention time of 759 s.

Molecule `Cc1cccc(-c2nc(-c3cccc(-c4ccn[nH]4)c3)no2)c1` yielded an RP-LC retention time of 1100 s. As for `O=C(NCC1CCOCC1)Nc1cccc(Br)c1`, the RP-LC retention time was determined as 749 s. `O=C(c1ccccn1)N1CCCCC1c1nc(-c2cnccn2)no1` (centres undefined) came in with an RP-LC retention time of 637 s. Regarding `O=C(Nc1ccc(OCc2nnc(-c3ccccc3)o2)cc1)c1cccnc1`, the RP-LC retention time was found to be 743 s. For the molecule `CCc1cccc(NC(=O)c2cc3sccc3n2Cc2ccc(Cl)cc2)c1`, the RP-LC retention time was 1340 s. For the molecule `CC(=O)N(CCC1(C(C)C)CCOC(C)(C)C1)Cc1ccccc1` (centres undefined), the RP-LC retention time amounted to 1000 s.

The molecule `COc1ccc(NC(=O)NCCn2c(-c3ccncc3)nc3cccnc32)cc1` gave an RP-LC retention time of 608 s. The value for `O=C(NCc1ccccc1)c1cc2sccc2n1Cc1ccc(Cl)cc1` was 1170 s; that for `Cc1ccc(NC(=O)C2CCc3nc(N4CCOCC4)ncc3C2)c(F)c1` (centres undefined) was 731 s; that for `CCn1nccc1C(=O)NC1CCN(C2=NS(=O)(=O)C(c3ccc(F)cc3)=C2C)CC1` was 788 s.

`COc1cc([C@@H]2c3cc4c(cc3[C@H](O)[C@@H](CO)[C@@H]2C(=O)NCc2cc(F)ccc2F)OCO4)cc(OC)c1OC` yielded an RP-LC retention time of 718 s. For the molecule `Cc1ccc(C)c(C(O)Cn2ccn3nc(-c4cccc(Br)c4)cc3c2=O)c1` (centres undefined), the RP-LC retention time is 1160 s. Molecule `COc1ccccc1C(CNC(=O)c1cc(=O)c2ccccc2o1)N(C)C` (centres undefined) displayed an RP-LC retention time of 606 s. As for `CCCC(=O)Nc1nc(-c2ccccc2)c(C(=O)OCC)s1`, the RP-LC retention time is 973 s. The molecule `CCOC(=O)c1ccc(NC(=O)CSc2ccc(N3CCCC(C(=O)NC4CC4)C3)nn2)cc1` (centres undefined) showed an RP-LC retention time of 678 s.

In turn, `Cc1ccc(CNS(=O)(=O)c2cc(-c3nc(C(C)(C)C)cs3)cs2)cc1` gave an RP-LC retention time of 1320 s. `CCOC(=O)c1ncoc1-c1ccccc1C(=O)NC(C)C` yielded an RP-LC retention time of 676 s. The result for `Cc1ccc(-c2n[nH]c3c2CN(S(=O)(=O)c2cn(C)cn2)CC3)cc1` reads 687 s; that for `O=C(Nc1cnn(-c2ncncc2N2CCOCC2)c1)c1cc2c(s1)CCCC2`, 789 s; that for `CCOc1ccc2nc(C(=O)NCc3ccc(C(F)(F)F)cc3)cn2n1`, 947 s. As for `O=C(c1cc(Cl)ccc1Cl)N1CCN(CC(O)c2cccs2)CC1` (centres undefined), the RP-LC retention time was 581 s. In turn, `O=C(c1ccc2c(c1)OCO2)N1CCC(n2nc(-c3ccsc3)ccc2=O)CC1` displayed an RP-LC retention time of 764 s.

Molecule `CCN1CCN(Cc2ccc(C(=O)NCc3cc(F)cc(F)c3)cc2)C(=O)C1=O` showed an RP-LC retention time of 682 s. For `Clc1cccc(Cc2nc(-c3ccc(-n4ccnc4)nc3)no2)c1`, the RP-LC retention time worked out at 764 s. Consider `CCCc1ccc(S(=O)(=O)N2CCN(c3cnn4c(C)nnc4c3)CC2)cc1`, for which the RP-LC retention time came out at 805 s. For the molecule `Cc1ccc(-n2nc(N3CCCN(C(=O)Nc4cccc(C)c4)CC3)ccc2=O)cc1`, the RP-LC retention time turned out to be 802 s. As to `CCOC(=O)c1nc(NC(CC)CN(C)Cc2ccccc2)c2c(C)noc2n1` (centres undefined), the RP-LC retention time was found to be 672 s. As for `Cc1ccc2c(c1)C(O)(CC(=O)c1cccc(Br)c1)C(=O)N2` (centres undefined), the RP-LC retention time came out at 789 s. The result for `Fc1ccc(CN2CCCCC2c2nc(-c3cnccn3)no2)c(F)c1` (centres undefined) reads 738 s; that for `COC(=O)Nc1ccc(-c2nc(N3CCOCC3)c3cnn(C4CCN(C(=O)OC)CC4)c3n2)cc1`, 861 s. The value for `Cc1cc(C)cc(NC(=O)N2CCN(CCn3c(-c4ccncc4)nc4cccnc43)CC2)c1` was 627 s. Take `Cc1ccccc1-c1noc(-c2cccn(CC(=O)NCC3CCCO3)c2=O)n1` (centres undefined): the RP-LC retention time turned out to be 729 s. In the case of `Cn1nccc1C(=O)NCc1ccc2c(c1)CCN2C(=O)c1ccccc1`, the RP-LC retention time stood at 759 s. The result for `COc1ccc(-c2noc(C3CC(=O)N(c4cc(C)cc(C)c4)C3)n2)c(OC)c1` (centres undefined) reads 970 s. The value for `O=C(c1cc2ccccc2[nH]1)N1CCN(c2cc(-c3cccnc3)[nH]n2)CC1` was 630 s; that for `CCOC(=O)C1CCCN(Cc2nc3nc(C)cc(N4CCCCCC4)n3n2)C1` (centres undefined) was 620 s. The value for `COc1ccc(C(=O)NCc2cnoc2-c2ccc(F)cc2)cc1OC` was 820 s; that for `O=C(CN1CCC(c2nc(-c3cccc(F)c3)no2)CC1)NC1CCCCC1` was 705 s; that for `Cn1nc(-c2nnc(-c3ccccc3)o2)c2c1CCN(S(=O)(=O)c1ccc(C#N)cc1)C2` was 897 s.

Consider `Cc1ccc(CNC(=O)C2CCCN(S(=O)(=O)c3cc(-c4noc(C)n4)cs3)C2)o1` (centres undefined), for which the RP-LC retention time turned out to be 864 s.

Molecule `CS(=O)(=O)N1CCCC(C(=O)NCCC2=CCCCC2)CCNC(=O)CC1` (centres undefined) showed an RP-LC retention time of 690 s. As to `CCCn1c(-c2cccc(C(=O)NCc3ccccc3C(F)(F)F)c2)nc2cccnc21`, the RP-LC retention time was determined as 911 s. `COCC(=O)N1CCc2c(c(-c3nnc(-c4ccccc4Cl)o3)nn2C)C1`: the RP-LC retention time is 689 s. The molecule `CC12CC(NC(=O)N1c1ccc(C(=O)N3CCN(c4ccccn4)CC3)cc1)c1ccccc1O2` (centres undefined) had an RP-LC retention time of 599 s. Regarding `Cc1cc2c(=O)n(CC(=O)Nc3ccc(F)c(C)c3)c3cccnc3n2n1`, the RP-LC retention time was found to be 748 s. Take `Cc1[nH]nc(-c2ccc(S(=O)(=O)N3CCN(c4ccccn4)CC3)s2)c1C`: the RP-LC retention time was found to be 662 s. The value for `O=C(NCc1ccncc1)C1=C2CCCN2c2ccc(F)cc2S1(=O)=O` was 583 s; that for `COC(=O)c1cc(S(=O)(=O)N2CCCC2C(=O)Nc2ccc(F)cc2F)cn1C` (centres undefined) was 875 s; that for `CCC(CC)N1CCN(C(=O)c2ccc3[nH]c4c(c3c2)CN(C(=O)C2CCC2)CC4)CC1` was 607 s.

In turn, `Cn1cccc1C(=O)NC(C)(C)c1nc2c(c(C(N)=O)n1)OCCO2` displayed an RP-LC retention time of 608 s. The result for `O=C(c1cn(-c2cc(N3CCSCC3)ncn2)cn1)N1CCc2ccccc2C1` reads 886 s; that for `COc1ccc(C(=O)NCc2cccnc2OC)c(OC)n1`, 840 s; that for `COc1ccc(-c2noc(Cn3ccn(-c4ccccc4OC)c(=O)c3=O)n2)cc1`, 623 s. `CN(C(=O)CSc1cc(NCc2ccc(Cl)cc2)ncn1)C1CCCCC1` displayed an RP-LC retention time of 956 s.

In the case of `Cc1ccc(CN(C(=O)COc2cc(C)c(Cl)c(C)c2)C2CCS(=O)(=O)C2)o1` (centres undefined), the RP-LC retention time stood at 1030 s.

`COCCc1noc(-c2nc(-c3ccc(OC)c(OC)c3)no2)n1` gave an RP-LC retention time of 892 s. `CCc1nccn1Cc1nc(-c2ccc(C)cc2)no1`: the RP-LC retention time came out at 646 s.

Molecule `CCc1ccc(NC(=O)Nc2ccc(NC(=O)N3CCCC(C(=O)NC)C3)cc2)cc1` (centres undefined) gave an RP-LC retention time of 730 s. Molecule `O=C(Nc1cc(F)ccc1F)NC1CCN(c2cc(N3CCCC3)cnn2)C1` (centres undefined) came in with an RP-LC retention time of 681 s. The value for `O=C1CC(c2nc(-c3cccc(Cl)c3)no2)CN1c1ccc2c(c1)OCCO2` (centres undefined) was 1000 s. Take `COc1ccc(NC(=O)c2nnc(CCCC(=O)NCCc3c[nH]c4ccc(Cl)cc34)s2)cc1`: the RP-LC retention time amounted to 892 s. Consider `Cc1nnc2c(=O)n(CC(=O)NCc3ccc(F)cc3F)c3cccnc3n12`, for which the RP-LC retention time was 680 s. As to `Cc1ccc(CN2CCC(n3c(C)cnc3-c3cccnc3)C2)s1` (centres undefined), the RP-LC retention time was determined as 546 s. For the molecule `COc1cccc(CCC(=O)NC2(c3nc(C)no3)CCCCC2)c1`, the RP-LC retention time was 856 s.

As to `CCN(CC)CCCNC(=O)C1c2cc(OC)c(OC)cc2C(=O)N2CCc3ccccc3C12` (centres undefined), the RP-LC retention time turned out to be 608 s.

`CCC(C)NC(=O)N1CCN(c2cc(-c3ccc(OC)c(OC)c3)ncn2)CC1` (centres undefined) returned an RP-LC retention time of 621 s. `COc1ccccc1-c1[nH]ncc1CN1C[C@@H]2CCN(S(C)(=O)=O)C[C@]2(CF)C1` gave an RP-LC retention time of 583 s. `CC(C)NC(=O)c1ccc(OCC2CCCN(C(=O)c3ccc(F)c(F)c3)C2)cc1` (centres undefined) yielded an RP-LC retention time of 869 s. The molecule `CCN(CC)CCNCc1ccc(-c2ccc(Cl)cc2)o1` yielded an RP-LC retention time of 591 s. In the case of `CCC1CCCCN1CCCNC(=O)C1=C(C)C(=O)OC12CCN(C(C)=O)CC2` (centres undefined), the RP-LC retention time was found to be 565 s. `COc1ccc(-c2cc(N)n[nH]2)c(OC)c1` returned an RP-LC retention time of 595 s. Molecule `CCOc1ccccc1-n1ccn(Cc2nc(-c3ccc(Cl)cc3)no2)c(=O)c1=O` registered an RP-LC retention time of 938 s. As to `CCCN(C(=O)c1ccccc1)c1nc(-c2ccccc2)cs1`, the RP-LC retention time is 1310 s.

With `CC(=O)Nc1ccc(S(=O)(=O)N2CCCC2c2nc(-c3ccc(F)cc3)no2)cc1Cl` (centres undefined), the RP-LC retention time was determined as 990 s. In turn, `CN1C(=O)c2cccn2CC1CNC(=O)Nc1ccccc1` (centres undefined) returned an RP-LC retention time of 647 s. The result for `CCOCC(=O)Nc1ccc(-c2nnc(CC)o2)cc1` reads 657 s; that for `COc1ccc(C(F)(F)F)cc1NC(=O)CCCSc1ccc(NC(C)=O)nn1`, 785 s; that for `O=C(c1ccc(Cl)cc1)N1CCN(c2nc(CN3CCCCC3)cs2)CC1`, 808 s.
